US20250243194A1, “ANTAGONIST OF ADENOSINE RECEPTORS” (AdoRx Therapeutics Limited, priority 2022, published 2025)
Read-outs that look alike come from different tables or passages of the source.

Columns and labels:
[1] = molecular target: human Adenosine A1 receptor (Homo sapiens (Human), UniProt P30542); assay: Adenosine receptor TR-FRET binding assay (A1)
Summary of the method: (§1)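 Compounds incubated 2 h at room temperature with membranes from CHO cells expressing terbium-labelled human receptors, competing with the fluorescent antagonist CA200645 (30 nM for A2b; 100 nM for A1, A2a and A3). Read by TR-FRET (665/620 nm); non-specific binding defined with 10 μM XAC. Ki derived from IC50 via Cheng-Prusoff.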

[2] = system: human PBMCs; assay: CD3/CD28 stimulated IL-2 release NECA reversal assay in human PBMCs; assay type: cell-based; details: PBMC, reversal of 1 uM NECA, 24 hours
Protocol: Blood is drawn from healthy volunteers using sodium citrate as the anticoagulant (0.3% final concentration). After centrifugation of the blood over Histopaque-1077, PBMCs are collected from the Histopaque/plasma interface and washed twice in PBS (300 g for 10 mins at room temp). Cells are plated at 50,000 cells/well in 150 μl RPMI/10% FCS in 96-well cell culture plates that have been precoated with 1 μg/ml CD3 antibody. 50 μl diluted compound mix is added to the cells, to obtain final concentrations of 1 μg/ml CD28 antibody, 1 uM NECA and 0.003-10 μM adenosine receptor antagonist. Assay plates are incubated for 24 hours at 37° C. in a humidified incubator. Culture supernatant is tested for IL-2 levels using the human IL-2 Tissue Culture Kit (Meso Scale Discovery).

[3] = system: CD8+ T cells in human whole blood; assay: Measurement of pCREB in CD8+ T cells in human whole blood; assay type: cell-based; details: T-cell, 3 μM NECA, rolipram, FACS
Protocol: Heparinised human whole blood was pre-incubated at 37° C. with serial dilutions of A2a antagonists for 20 min. and the phosphodiesterase inhibitor rolipram to amplify the pCREB response. The adenosine receptor agonist NECA is then added at a final concentration of 3 μM and following a 60 min incubation the blood is fixed and red blood cells lysed. White blood cells are isolated, permeabilized and stained with directly conjugated fluorescent antibodies to phospho-CREB (Alexa Fluor 488) and CD8 (Alexa Fluor 647) and the level of phospho-CREB in CD8+ T cells is measured by FACS using a BD Accuri C6 Flow Cytometer.

[4] = molecular target: human Adenosine A2b receptor (Homo sapiens (Human), UniProt P29275); assay: Adenosine receptor TR-FRET binding assay (A2b); details: inhibition of binding of 30 nM CA200645; CHO cell membranes; Ki from IC50 by Cheng and Prusoff
Summary of the method: as §1

[5] = molecular target: human Adenosine A2a receptor (Homo sapiens (Human), UniProt P29274); assay: Adenosine receptor TR-FRET binding assay (A2a)
Summary of the method: as §1

[6] = system: immature monocyte-derived dendritic cells (MoDC); assay: MoDC pCREB assay; assay type: cell-based; details: Homo sapiens, Dendritic cell, CD209+/CD86-low cells, 1 μM NECA, 20 μM rolipram, largely specific to A2B
Protocol: Monocytes are isolated from human whole blood using CD14 microbeads (Miltenyi Biotec 130-050-201) and differentiated to immature monocyte-derived dendritic cells (MoDC) by culture for 5 days in Mo-DC Differentiation Medium (Miltenyi Biotec 130-094-812). MoDCs are seeded into fresh medium into U bottomed 96 well culture plates and pre-incubated at 37° C. with serial dilutions of A2A/B antagonists for 15 min. At the same time the cells are co-incubated with the phosphodiesterase inhibitor rolipram (final concentration of 20 μM) to amplify the subsequent pCREB response. Adenosine receptor agonist NECA is then added at 1 μM final concentration, leading to an increase in CREB phosphorylation. Following a 45 min incubation at 37° C., the cells are fixed, permeabilized and stained with directly conjugated fluorescent antibodies to phospho-CREB (Alexa Fluor 488), CD209 (PerCP-Cy5.5) and CD86 (APC). Samples are analysed by FACS to measure fluorescence in corresponding channels, and also forward and Side scatter. The population of CD209+/CD86-low cells corresponding to immature dendritic cells is gated for analysis of pCREB levels.
Approximately 5% of the analysed cells are positive for detection of pCREB in the absence of agonist stimulation, representing the background signalling of all pathways upstream of CREB. Following NECA stimulation this is increased to ˜80% pCREB+ve, and this increase is essentially fully reversible by A2B or dual A2A/B antagonists.
IC50 is represented as the point of inflection of a sigmoidal curve

[7] = inhibition of binding of 100 nM CA200645, CHO cell membranes, Ki from IC50 by Cheng and Prusoff

Chain of human Adenosine A2b receptor (P29275 whole entry): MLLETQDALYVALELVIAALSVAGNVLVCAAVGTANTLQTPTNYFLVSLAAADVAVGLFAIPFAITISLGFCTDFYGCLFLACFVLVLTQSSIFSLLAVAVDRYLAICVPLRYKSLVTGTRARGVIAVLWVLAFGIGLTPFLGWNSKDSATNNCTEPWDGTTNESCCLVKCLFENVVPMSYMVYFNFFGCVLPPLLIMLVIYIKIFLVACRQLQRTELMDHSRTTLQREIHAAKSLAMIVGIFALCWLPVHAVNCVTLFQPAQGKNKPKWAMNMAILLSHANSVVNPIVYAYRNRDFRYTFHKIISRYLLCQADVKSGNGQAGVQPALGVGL
Chain of human Adenosine A2a receptor (P29274 whole entry): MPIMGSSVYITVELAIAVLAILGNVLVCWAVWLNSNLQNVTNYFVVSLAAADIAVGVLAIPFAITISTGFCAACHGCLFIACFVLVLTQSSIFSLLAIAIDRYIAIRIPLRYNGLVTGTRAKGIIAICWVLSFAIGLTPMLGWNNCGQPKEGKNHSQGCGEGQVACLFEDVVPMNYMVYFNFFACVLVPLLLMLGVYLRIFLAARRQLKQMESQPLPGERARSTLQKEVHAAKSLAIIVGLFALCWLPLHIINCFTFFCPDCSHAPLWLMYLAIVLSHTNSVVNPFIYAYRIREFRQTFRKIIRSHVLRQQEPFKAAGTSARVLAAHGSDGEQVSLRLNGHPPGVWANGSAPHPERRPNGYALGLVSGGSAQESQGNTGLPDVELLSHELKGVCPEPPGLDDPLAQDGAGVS
Chain of human Adenosine A1 receptor (P30542 whole entry): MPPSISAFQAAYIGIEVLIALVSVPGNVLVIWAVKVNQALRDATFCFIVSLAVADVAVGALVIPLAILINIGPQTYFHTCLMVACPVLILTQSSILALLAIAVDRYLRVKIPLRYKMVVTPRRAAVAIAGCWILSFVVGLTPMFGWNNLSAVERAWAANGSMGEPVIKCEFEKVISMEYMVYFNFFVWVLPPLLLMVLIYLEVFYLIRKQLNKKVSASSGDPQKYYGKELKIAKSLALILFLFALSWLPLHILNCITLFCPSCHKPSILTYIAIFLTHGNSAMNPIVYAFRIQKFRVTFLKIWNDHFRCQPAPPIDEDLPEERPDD

SMILES | Ki [1, 7] | IC50 [3] | Ki [4] | Ki [5, 7] | IC50 [6] | Ki [1] | Ki [5] | IC50 [2]
Cc1ncnc2ccc(-c3sc(NC(=O)N4CC[C@@H](C(C)(C)O)C4)nc3-c3cccc(C#N)c3)cc12 [Example 7, (3R)—N-[4-(3-Cyanophenyl)-5-(4-methylquinazolin-6-yl)thiazol-2-yl]-3-(1-hydroxy-1-methyl-ethyl)pyrrolidine-1-carboxamide] | – | 10 nM | 1.4 nM | 0.1 nM | 3 nM | – | – | 0.3 nM
Cc1ncnc2ccc(-c3sc(NC(=O)N4CC[C@H](C(C)(C)O)C4)nc3-c3cccc(C#N)c3)cc12 [Example 5, (3S)—N-[4-(3-Cyanophenyl)-5-(4-methylquinazolin-6-yl)thiazol-2-yl]-3-(1-hydroxy-1-methyl-ethyl)pyrrolidine-1-carboxamide] | – | 15 nM | 1.7 nM | 0.17 nM | 3 nM | – | – | 0.4 nM
Cc1ncnc2ccc(-c3sc(NC(=O)N4CCC(C)(C#N)CC4)nc3-c3cccc(C#N)c3)cc12 [Example 6, 4-Cyano-N-[4-(3-cyanophenyl)-5-(4-methylquinazolin-6-yl)thiazol-2-yl]-4-methyl-piperidine-1-carboxamide] | 3 nM | 11 nM | 0.8 nM | 0.07 nM | 2 nM | – | – | 0.1 nM
Cc1ncnc2c(C)cc(-c3sc(NC(=O)N4CC5(COC5)C4)nc3-c3cccc(C#N)c3)cc12 [Example 20, N-[4-(3-Cyanophenyl)-5-(4,8-dimethylquinazolin-6-yl)thiazol-2-yl]-2-oxa-6-azaspiro[3.3]heptane-6-carboxamide] | 8 nM | 105 nM | 1 nM | 0.18 nM | 3 nM | – | – | 0.8 nM

Now from value to compound, other results behind:

Ki [1, 7] | IC50 [3] | Ki [4] | Ki [5, 7] | IC50 [6] | Ki [1] | Ki [5] | SMILES | IC50 [2]
18 nM | 12 nM | 1.3 nM | 0.14 nM | 2 nM | – | – | Cc1ncnc2ccc(-c3sc(NC(=O)N4CC5(C4)CC(C)(O)C5)nc3-c3cccc(C#N)c3)cc12 [Example 7.24, N-[4-(3-Cyanophenyl)-5-(4-methylquinazolin-6-yl)thiazol-2-yl]-6-hydroxy-6-methyl-2-azaspiro[3.3]heptane-2-carboxamide] | 0.7 nM
10 nM | 30 nM | 1.1 nM | 0.13 nM | 3 nM | – | – | Cc1ncnc2ccc(-c3sc(NC(=O)N4CCC5(CCC(=O)N5)CC4)nc3-c3cccc(C#N)c3)cc12 [Example 7.23, N-[4-(3-Cyanophenyl)-5-(4-methylquinazolin-6-yl)thiazol-2-yl]-2-oxo-1,8-diazaspiro[4.5]decane-8-carboxamide] | 0.8 nM
12 nM | 50 nM | 2.5 nM | 0.25 nM | 3 nM | – | – | Cc1ncnc2ccc(-c3sc(NC(=O)N4CCNCC4CC4CC4)nc3-c3cccc(C#N)c3)cc12 (stereo not shown) [Example 2.1, N-[4-(3-Cyanophenyl)-5-(4-methylquinazolin-6-yl)thiazol-2-yl]-2-(cyclopropylmethyl)piperazine-1-carboxamide] | 1.8 nM
3 nM | 7 nM | 1.1 nM | 0.12 nM | 2 nM | – | – | Cc1ncnc2ccc(-c3sc(NC(=O)N4CCC(C)(C#N)C4)nc3-c3cccc(C#N)c3)cc12 (stereo not shown) [Example 7.25, 3-Cyano-N-[4-(3-cyanophenyl)-5-(4-methylquinazolin-6-yl)thiazol-2-yl]-3-methyl-pyrrolidine-1-carboxamide] | 0.3 nM
65 nM | 22 nM | 3.3 nM | 0.64 nM | 5 nM | – | – | Cc1ncnc2ccc(-c3sc(NC(=O)N4CCN(C5COC5)CC4)nc3-c3cccc(C#N)c3)cc12 [Example 7.28, N-[4-(3-Cyanophenyl)-5-(4-methylquinazolin-6-yl)thiazol-2-yl]-4-(oxetan-3-yl)piperazine-1-carboxamide] | 0.9 nM
19 nM | 15 nM | 1.8 nM | 0.13 nM | 2 nM | – | – | Cc1ncnc2ccc(-c3sc(NC(=O)N4CCC5(CC4)CN(C)C(=O)O5)nc3-c3cccc(C#N)c3)cc12 [Example 7.26, N-[4-(3-Cyanophenyl)-5-(4-methylquinazolin-6-yl)thiazol-2-yl]-3-methyl-2-oxo-1-oxa-3,8-diazaspiro[4.5]decane-8-carboxamide] | 0.5 nM
345 nM | 60 nM | 6.4 nM | 1.83 nM | 4 nM | – | – | Cc1ncnc2ccc(-c3sc(NC(=O)N4CC5(CN(C)C5)C4)nc3-c3cccc(C#N)c3)cc12 [Example 7.4, N-[4-(3-Cyanophenyl)-5-(4-methylquinazolin-6-yl)thiazol-2-yl]-6-methyl-2,6-diazaspiro[3.3]heptane-2-carboxamide] | 3 nM
– | 8 nM | 1.1 nM | – | 2 nM | 42 nM | 0.14 nM | Cc1ncnc2ccc(-c3sc(NC(=O)N4CC5(CNCCO5)C4)nc3-c3cccc(C#N)c3)cc12 [Example 4.1, N-[4-(3-Cyanophenyl)-5-(4-methylquinazolin-6-yl)thiazol-2-yl]-5-oxa-2,8-diazaspiro[3.5]nonane-2-carboxamide] | 1.8 nM
13 nM | 4 nM | 1.9 nM | 0.2 nM | 2 nM | – | – | Cc1ncnc2ccc(-c3sc(NC(=O)N4CCC5(CC4)CNC(=O)C5)nc3-c3cccc(C#N)c3)cc12 [Example 7.17, N-[4-(3-Cyanophenyl)-5-(4-methylquinazolin-6-yl)thiazol-2-yl]-3-oxo-2,8-diazaspiro[4.5]decane-8-carboxamide] | 1.1 nM
